Test results: patent publication US7541021B2, “Process for preparation of a sterile suspension of corticosteroid particles for the administration by inhalation” (Chiesi Farmaceutici S.p.A., priority 2002, dated 2009)

How the values were obtained:
[1] = Particle size of micronised BDP by Malvern apparatus; format: physicochemical; conditions: micronised powder
Procedure: The dimensional characteristics of the particles were also evaluated by using a Malvern apparatus. This type of test exploits the diffraction of a laser beam by the particles to determine the size distribution of the particles in suspension. The parameter considered is the median volumetric diameter in μm of 10%, 50% and 90% of the particles, expressed as d(v,0.1), d(v,0.5) and d(v,0.9) respectively, which is determined by assuming that the particles have a geometrical shape equivalent to a sphere. Advantageously, in the suspension formulation of the invention, the d(v,0.9) after sonication is less than 8 μm and the d(v,0.5) is comprised between 2 and 3.5 μm.

[2] = Apparent volumes and densities (European Pharmacopoeia 2.9.15) of micronised BDP powder; format: physicochemical; conditions: for dv, apparent density before settling: 100 g in 250 ml cylinder; for ds, apparent density after packing: after compacting
Procedure: The apparent volumes and densities were measured according to the European Pharmacopoeia, 4th edition, paragraph 2.9.15. 100 g of the test substance is introduced into a dry 250 ml cylinder without compacting it. The unsettled apparent volume (Vo) is read off, then 10, 500 and 1250 taps are performed, and volumes (V10, V500 and V1250) are read. If the difference between V500 and V1250 is greater than 2 ml, 1250 further taps are performed (V2500).

[3] = test system: microsomes of human lung cells; experiment: Formation of fatty acid esters of 17-BMP in lung microsomes; format: in vitro ADME
[4] = Elimination of 17-BMP after nebulisation of aqueous BDP suspensions versus pressurised aerosol suspensions; format: in vivo; conditions: after aqueous suspensions of BDP by nebulisation, compared with suspension formulations as pressurised aerosols
Source text: It has also been observed that due to the formation of the monoester in the lung cells, the elimination half-life and the mean residence time of 17-BMP are longer after the administration of aqueous suspensions of BDP by nebulisation than formulations in suspension administered in the form of pressurised aerosols.

Particle size d (v, 0.1) [1] [μm]	Particle size d (v, 0.5) [1] [μm]	Particle size d (v, 0.9) [1] [μm]	Cs, packing capacity (difference between V10 and V500) [2] [mL]	dv, apparent density before settling [2] [g/mL]	ds, apparent density after packing [2] [g/mL]	Formation of stable esters with long-chain fatty acids such as oleic acid [3]	elimination half-life [4]	mean residence time [4]	SMILES
0.49	1.91	5.98	16	0.21	0.27	–	–	–	CCC(=O)OCC(=O)[C@@]1(OC(=O)CC)[C@@H](C)C[C@H]2[C@@H]3CCC4=CC(=O)C=C[C@]4(C)[C@@]3(Cl)[C@@H](O)C[C@@]21C [Non-irradiated BDP, beclomethasone dipropionate]
–	–	–	–	–	–	are formed	longer	longer	CCC(=O)O[C@]1(C(=O)CO)[C@@H](C)C[C@H]2[C@@H]3CCC4=CC(=O)C=C[C@]4(C)[C@@]3(Cl)[C@@H](O)C[C@@]21C [17-BMP, beclomethasone-17-monopropionate]
0.48	1.81	5.73	12	0.32	0.42	–	–	–	CCC(=O)OCC(=O)[C@@]1(OC(=O)CC)[C@@H](C)C[C@H]2[C@@H]3CCC4=CC(=O)C=C[C@]4(C)[C@@]3(Cl)[C@@H](O)C[C@@]21C [Irradiated BDP, beclomethasone dipropionate]
